Patent US20120309796A1, “BENZOCYCLOHEPTENE ACETIC ACIDS” (priority 2011, published 2012)

How the values were obtained:
[1] = target: T1, thromboxane A2 receptor (TP) (Homo sapiens, UniProt P21731); assay: Human Thromboxane A2 Receptor Binding Assay; details: human platelets; 10 nM [3H]SQ29548; 1 hour, room temperature
T1 construct: using human platelets as the source of the receptor; from tissue; host or cells: human platelets (whole platelets, 5x10^7 per well)
T1 sequence (P21731 1-343): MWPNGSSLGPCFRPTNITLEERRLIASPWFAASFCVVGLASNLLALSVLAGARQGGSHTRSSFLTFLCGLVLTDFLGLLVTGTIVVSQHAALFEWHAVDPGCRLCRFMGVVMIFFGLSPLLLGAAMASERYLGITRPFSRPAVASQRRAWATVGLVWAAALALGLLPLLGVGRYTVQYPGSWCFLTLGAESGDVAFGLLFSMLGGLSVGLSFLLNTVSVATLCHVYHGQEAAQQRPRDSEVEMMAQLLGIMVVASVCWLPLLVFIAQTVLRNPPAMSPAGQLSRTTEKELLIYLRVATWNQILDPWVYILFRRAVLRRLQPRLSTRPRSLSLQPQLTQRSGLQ
From the text: The thromboxane A2 receptor (TP) plays a key role in hemostasis as its abnormality leads to bleeding disorders. To avoid the potential liability of bleeding disorders, the binding activity of certain compounds of the present invention against TP was monitored by a receptor binding assay using human platelets as the source of the receptor and [^3H]SQ29548 (generically named (5Z)-[5,6-^3H]-7-[(1S,2R,3R,4R)-3-[[2-[(phenylamino)carbonyl]hydrazinyl]methyl]-7-oxabicyclo[2.2.1]hept-2-yl]-5-heptenoic acid, from PerkinElmer Inc.) as the competing radioactive ligand.
The TP binding reactions (0.2 mL) were performed in 96-well plates at room temperature in PBS containing 5×10^7 platelets, 10 mM MgCl2, 0.06% BSA, 10 nM [^3H]SQ29548, and the test compound at various concentrations. […] The radioactivities bound to the platelets were determined using a microplate scintillation counter (TopCount® NXT, from PerkinElmer Inc.) after adding 50 μL of Microscint™ 20 scintillation fluid (from PerkinElmer Inc.) to each well of the filter plates. The radioactivity from non-specific binding was determined by replacing the compound with 10 μM of ramatroban (BAY-u3405, from Cayman Chemical Company) in the reaction mixtures. The radioactivity bound to the platelets in the absence of compound (total binding) was determined by replacing the compound with 0.25% of DMSO in the reaction mixture. […]

[2] = target: T2, human CRTH2 (Homo sapiens, UniProt Q9Y5Y4); assay: Human CRTH2 Receptor Binding Assay (whole cell, [3H]ramatroban competition); design: two mammalian expression vectors that harbored human CRTH2 and G-alpha16 cDNAs; expressed in transfected cells; details: CHO-K1 cells expressing human CRTH2 and G-alpha16; 20 nM [3H]ramatroban; 1 hour, room temperature
T2 sequence (Q9Y5Y4 1-395): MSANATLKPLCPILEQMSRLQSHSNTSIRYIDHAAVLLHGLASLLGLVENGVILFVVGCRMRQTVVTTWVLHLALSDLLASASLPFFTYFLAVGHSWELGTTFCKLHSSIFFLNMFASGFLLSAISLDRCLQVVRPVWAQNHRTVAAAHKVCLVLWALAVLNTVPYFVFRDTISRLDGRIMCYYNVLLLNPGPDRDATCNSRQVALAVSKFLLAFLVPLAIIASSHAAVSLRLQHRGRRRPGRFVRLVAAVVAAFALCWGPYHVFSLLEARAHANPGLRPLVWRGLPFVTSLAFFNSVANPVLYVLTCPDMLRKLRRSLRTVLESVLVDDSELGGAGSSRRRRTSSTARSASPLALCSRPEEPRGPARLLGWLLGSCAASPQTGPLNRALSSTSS
In short: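 CHO-K1 cells stably co-expressing human CRTH2 and G-alpha16 (1.5×10^5/reaction) incubated 1 h at room temperature with 20 nM [3H]ramatroban in PBS, 10 mM MgCl2, 0.06% BSA. Non-specific binding defined with 10 μM 15(R)-15-methyl PGD2; IC50 from 7-point inhibition of specific binding, 4-parameter logistic fit.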

Row | IC50 [1] [µM] | IC50 [2] [µM] | SMILES
1 | 0.642 | 0.0089 | O=C(O)COc1cccc2c1CCCCC2NS(=O)(=O)c1cc(C(F)(F)F)cc(C(F)(F)F)c1 (stereo not shown) [Example 1, [5-(3,5-Bis-trifluoromethyl-benzenesulfonylamino)-6,7,8,9-tetrahydro-5H-benzocyclohepten-1-yloxy]-acetic acid]
2 | 3.61 | 0.0245 | O=C(O)COc1cccc2c1CCCCC2NS(=O)(=O)c1cc(C(F)(F)F)cc(C(F)(F)F)c1 (single isomer, unassigned) [Example 46, [5-(3,5-Bis-trifluoromethyl-benzenesulfonylamino)-6,7,8,9-tetrahydro-5H-benzocyclohepten-1-yloxy]-acetic acid]
